We go through 18 compounds from patent publication US10221177B2 (HYDRA BIOSCIENCES, INC., priority 2014, dated 2019).

The structures appear in SMILES notation. pIC50: −log10 of the molar value. Bounds are passed on as bounds.

human TRPA1, sequence (O75762 whole entry, the tested form may be a part): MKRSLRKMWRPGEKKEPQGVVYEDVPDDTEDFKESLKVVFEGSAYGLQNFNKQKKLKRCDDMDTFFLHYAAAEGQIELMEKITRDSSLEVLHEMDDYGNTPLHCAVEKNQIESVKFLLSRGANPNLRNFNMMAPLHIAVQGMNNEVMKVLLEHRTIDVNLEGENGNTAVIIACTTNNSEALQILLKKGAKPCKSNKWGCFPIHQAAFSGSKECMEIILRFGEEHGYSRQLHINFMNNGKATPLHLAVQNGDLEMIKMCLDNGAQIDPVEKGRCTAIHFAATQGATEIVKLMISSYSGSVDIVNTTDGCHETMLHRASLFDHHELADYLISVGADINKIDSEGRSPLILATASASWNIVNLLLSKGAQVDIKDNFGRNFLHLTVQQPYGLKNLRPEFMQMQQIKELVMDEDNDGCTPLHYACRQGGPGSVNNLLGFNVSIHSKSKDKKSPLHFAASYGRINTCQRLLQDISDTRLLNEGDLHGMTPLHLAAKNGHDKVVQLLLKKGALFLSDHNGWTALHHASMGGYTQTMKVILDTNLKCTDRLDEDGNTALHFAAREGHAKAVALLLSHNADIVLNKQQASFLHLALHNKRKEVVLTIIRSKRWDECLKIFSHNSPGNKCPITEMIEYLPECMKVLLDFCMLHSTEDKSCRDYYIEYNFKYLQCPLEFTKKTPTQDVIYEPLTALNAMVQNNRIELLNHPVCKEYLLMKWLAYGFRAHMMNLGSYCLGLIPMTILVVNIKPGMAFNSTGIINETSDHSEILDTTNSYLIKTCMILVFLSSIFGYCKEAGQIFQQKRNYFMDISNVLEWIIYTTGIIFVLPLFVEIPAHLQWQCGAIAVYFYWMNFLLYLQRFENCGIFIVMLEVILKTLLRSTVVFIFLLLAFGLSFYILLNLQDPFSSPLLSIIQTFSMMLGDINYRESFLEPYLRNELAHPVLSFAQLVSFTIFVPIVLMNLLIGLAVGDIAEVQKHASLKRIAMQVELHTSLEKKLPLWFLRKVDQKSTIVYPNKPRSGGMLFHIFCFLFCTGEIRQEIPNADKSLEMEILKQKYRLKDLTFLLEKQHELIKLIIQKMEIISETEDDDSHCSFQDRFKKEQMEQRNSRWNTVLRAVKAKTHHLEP

In this assay the target is human TRPA1 (Homo sapiens (Human), UniProt O75762). The experiment in a line: In vitro inhibition of human TRPA1, whole cell patch configuration. The format is cell-based. To be noted: current activation 10 μM AITC, tested concentrations 320 pM to 3.2 μM, read-out: hTRPA1 IC50. A digest of the protocol:
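Whole-cell patch clamp, bath 150 mM NaCl, 10 mM HEPES, 1 mM EGTA, 3 mM MgCl2, pH 7.4 (sometimes 2 mM CaCl2, 1 mM MgCl2). Currents recorded continuously at −60 mV or by 400 ms ramps from −40 mV holding every 4 s; inward/outward currents taken at −80/80 mV, with controlled-temperature focal perfusion.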
For the compound `CC(C(=O)Nc1ccnc(-c2cnc(C(F)(F)F)nc2)n1)n1cnc2c1c(=O)n(Cc1ccccn1)c(=O)n2C` (stereo not drawn) [Compound 141, 2-(3-methyl-2,6-dioxo-1-(pyridin-2-ylmethyl)-2,3-dihydro-1H-purin-7(6H)-yl)-N-(2′(trifluoromethyl)-2,5′-bipyrimidin-4-yl)propanamide], the pIC50 (commonly −log10 of the IC50, conventionally taken in molar units) was 7.10.
The figure for `CC(=O)Cn1c(=O)c2c(ncn2[C@@H](C)C(=O)Nc2cccc(-c3cnc(N4CC5CC5C4)nc3)n2)n(C)c1=O` (stereo partly drawn) [Compound 142, (2S)—N-(6-(2-(3-azabicyclo[3.1.0]hexan-3-yl)pyrimidin-5-yl)pyridin-2-yl)-2-(3-methyl-2,6-dioxo-1-(2-oxopropyl)-2,3-dihydro-1H-purin-7(6H)-yl)propanamide] is 8.15; for `CC(=O)Cn1c(=O)c2c(ncn2[C@@H](C)C(=O)Nc2ccnc(-c3cnc(N4CC5CC5C4)nc3)n2)n(C)c1=O` (stereo partly drawn) [Compound 143, (2S)—N-(2′-(3-azabicyclo[3.1.0]hexan-3-yl)-2,5′-bipyrimidin-4-yl)-2-(3-methyl-2,6-dioxo-1-(2-oxopropyl)-2,3-dihydro-1H-purin-7(6H)-yl)propanamide] it is 7.70.
For the compound `CC#CCn1c(=O)c2c(ncn2[C@@H](C)C(=O)Nc2csc(-c3cnc(N4CC5CC5C4)nc3)n2)n(C)c1=O` (stereo partly drawn) [Compound 145, (2S)—N-(2-(2-(3-azabicyclo[3.1.0]hexan-3-yl)pyrimidin-5-yl)thiazol-4-yl)-2-(1-(but-2-ynyl)-3-methyl-2,6-dioxo-2,3-dihydro-1H-purin-7(6H)-yl)propanamide], the pIC50 was 8.70.
`COCC(=O)Cn1c(=O)c2c(ncn2[C@@H](C)C(=O)Nc2cccc(-c3cnc(N4CC5C(C4)C5(F)F)nc3)n2)n(C)c1=O` (stereo partly drawn) [Compound 146, (2S)—N-(6-(2-(6,6-difluoro-3-azabicyclo[3.1.0]hexan-3-yl)pyrimidin-5-yl)pyridin-2-yl)-2-(1-(3-methoxy-2-oxopropyl)-3-methyl-2,6-dioxo-2,3-dihydro-1H-purin-7(6H)-yl)propanamide]: the pIC50 was 8.52.
`CCC(=O)Cn1c(=O)c2c(ncn2[C@@H](C)C(=O)Nc2cccc(-c3cnc(N4CC5CC5C4)nc3)n2)n(C)c1=O` (stereo partly drawn) [Compound 147, (2S)—N-(6-(2-(3-azabicyclo[3.1.0]hexan-3-yl)pyrimidin-5-yl)pyridin-2-yl)-2-(3-methyl-2,6-dioxo-1-(2-oxobutyl)-2,3-dihydro-1H-purin-7(6H)-yl)propanamide]: the pIC50 was 8.22.
Consider `Cc1noc(Cn2c(=O)c3c(ncn3[C@@H](C)C(=O)Nc3ccnc(-c4cnc(C(F)(F)F)c(C)c4)n3)n(C)c2=O)n1` [Compound 150, (S)-2-(3-methyl-1-((3-methyl-1,2,4-oxadiazol-5-yl)methyl)-2,6-dioxo-2,3-dihydro-1H-purin-7(6H)-yl)-N-(2-(5-methyl-6-(trifluoromethyl)pyridin-3-yl)pyrimidin-4-yl)propanamide], for which the pIC50 is 8.40.
The result for `Cc1nc(Cn2c(=O)c3c(ncn3[C@@H](C)C(=O)Nc3cccc(-c4cnc(C)c(C(F)(F)F)c4)n3)n(C)c2=O)no1` [Compound 151, (S)-2-(3-methyl-1-((5-methyl-1,2,4-oxadiazol-3-yl)methyl)-2,6-dioxo-2,3-dihydro-1H-purin-7(6H)-yl)-N-(6′-methyl-5′-(trifluoromethyl)-2,3′-bipyridin-6-yl)propanamide] reads 7.80; that for `CC(=O)Cn1c(=O)c2c(ncn2[C@@H](C)C(=O)Nc2cncc(-c3cnc(N4CC5CC5C4)nc3)n2)n(C)c1=O` (stereo partly drawn) [Compound 152, (2S)—N-(6-(2-(3-azabicyclo[3.1.0]hexan-3-yl)pyrimidin-5-yl)pyrazin-2-yl)-2-(3-methyl-2,6-dioxo-1-(2-oxopropyl)-2,3-dihydro-1H-purin-7(6H)-yl)propanamide], 8.15; that for `CC(=O)Cn1c(=O)c2c(ncn2[C@@H](C)C(=O)Nc2ncsc2-c2cnc(C(F)(F)F)nc2)n(C)c1=O` [Compound 154, (S)-2-(3-methyl-2,6-dioxo-1-(2-oxopropyl)-2,3-dihydro-1H-purin-7(6H)-yl)-N-(5-(2-(trifluoromethyl)pyrimidin-5-yl)thiazol-4-yl)propanamide], under 5.49.
`Cc1cc(Cn2c(=O)c3c(ncn3[C@@H](C)C(=O)Nc3cccc(-c4cncc(C(F)(F)F)c4)n3)n(C)c2=O)no1` [Compound 156, (S)-2-(3-methyl-1-((5-methylisoxazol-3-yl)methyl)-2,6-dioxo-2,3-dihydro-1H-purin-7(6H)-yl)-N-(5′-(trifluoromethyl)-2,3′-bipyridin-6-yl)propanamide]: the pIC50 is 8.52.
Consider `CC#CCn1c(=O)c2c(ncn2[C@@H](C)C(=O)Nc2csc(-c3cnc(N4CCC[C@@H]4C(F)(F)F)nc3)n2)n(C)c1=O` [Compound 157, (S)-2-(1-(but-2-ynyl)-3-methyl-2,6-dioxo-2,3-dihydro-1H-purin-7(6H)-yl)-N-(2-(2-((R)-2-(trifluoromethyl)pyrrolidin-1-yl)pyrimidin-5-yl)thiazol-4-yl)propanamide], for which the pIC50 is 9.00.
In the case of `CCC(=O)Cn1c(=O)c2c(ncn2[C@@H](C)C(=O)Nc2cncc(-c3cnc(N4CC5CC5C4)cn3)n2)n(C)c1=O` (stereo partly drawn) [Compound 158, (2S)—N-(5′-(3-azabicyclo[3.1.0]hexan-3-yl)-[2,2′-bipyrazin]-6-yl)-2-(3-methyl-2,6-dioxo-1-(2-oxobutyl)-2,3-dihydro-1H-purin-7(6H)-yl)propanamide], the pIC50 is 8.22.
Turning to `CCC(=O)Cn1c(=O)c2c(ncn2[C@@H](C)C(=O)Nc2cncc(-c3cnc(N4CC5C(C4)C5(F)F)cn3)n2)n(C)c1=O` (stereo partly drawn) [Compound 159, (2S)—N-(5′-(6,6-difluoro-3-azabicyclo[3.1.0]hexan-3-yl)-[2,2′-bipyrazin]-6-yl)-2-(3-methyl-2,6-dioxo-1-(2-oxobutyl)-2,3-dihydro-1H-purin-7(6H)-yl)propanamide], the pIC50 was 8.22.
`Cc1cc(-c2nc(NC(=O)[C@H](C)n3cnc4c3c(=O)n(CC(F)(F)F)c(=O)n4C)cs2)cnc1C(F)(F)F` [Compound 161, (S)-2-(3-methyl-2,6-dioxo-1-(2,2,2-trifluoroethyl)-2,3-dihydro-1H-purin-7(6H)-yl)-N-(2-(5-methyl-6-(trifluoromethyl)pyridin-3-yl)thiazol-4-yl)propanamide]: the pIC50 was 6.66.
With `Cc1ncc(-c2nc(NC(=O)[C@H](C)n3cnc4c3c(=O)n(CC(F)(F)F)c(=O)n4C)cs2)cc1C(F)(F)F` [Compound 162, (S)-2-(3-methyl-2,6-dioxo-1-(2,2,2-trifluoroethyl)-2,3-dihydro-1H-purin-7(6H)-yl)-N-(2-(6-methyl-5-(trifluoromethyl)pyridin-3-yl)thiazol-4-yl)propanamide], the pIC50 is 7.66.
As to `Cc1nc(Cn2c(=O)c3c(ncn3[C@@H](C)C(=O)Nc3csc(-c4cnc(C)c(C(F)(F)F)c4)n3)n(C)c2=O)no1` [Compound 163, (S)-2-(3-methyl-1-((5-methyl-1,2,4-oxadiazol-3-yl)methyl)-2,6-dioxo-2,3-dihydro-1H-purin-7(6H)-yl)-N-(2-(6-methyl-5-(trifluoromethyl)pyridin-3-yl)thiazol-4-yl)propanamide], the pIC50 is 8.70.
The figure for `CC(=O)Cn1c(=O)c2c(ncn2[C@@H](C)C(=O)Nc2cncc(-c3cnc(N4CC5C(C4)C5(F)F)cn3)n2)n(C)c1=O` (stereo partly drawn) [Compound 164, (2S)—N-(5′-(6,6-difluoro-3-azabicyclo[3.1.0]hexan-3-yl)-[2,2′-bipyrazin]-6-yl)-2-(3-methyl-2,6-dioxo-1-(2-oxopropyl)-2,3-dihydro-1H-purin-7(6H)-yl)propanamide] is 7.68.
